Reference: the supplement of paper PMC10307832

Assays:
Assay in all cases: relative viability (nuclei count vs DMSO), 5 days (fraction); higher = more cells survive
[1] = test system: LCLC-103H
In short: (§1)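 Relative viability divides the nuclei count in treated wells by that in vehicle wells. Lung cancer cell lines were seeded in 1536-well plates, dosed by pin tool the next day, and fixed and stained after 5 days in one step with final 0.05% Triton X-100, 1% formaldehyde and 1 ug/ml Hoechst. Dosing was a single drug or a fixed anchor-drug dose plus five library-drug doses (not always all listed) in √10 steps, and values are medians of duplicate plates imaged at 4×.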

[2] = test system: NCI-H1734
In short: as §1

[3] = test system: 201T
In short: as §1

[4] = test system: NCI-H1993
In short: as §1

[5] = test system: SW 1573
In short: as §1

[6] = test system: LOU-NH91
In short: as §1

[7] = test system: NCI-H1355
In short: as §1

[8] = test system: NCI-H1793
In short: as §1

[9] = test system: RERF-LC-KJ
In short: as §1

[10] = test system: NCI-H596
In short: as §1

[11] = test system: PC-3 [JPC-3]
In short: as §1

[12] = test system: NCI-H1915
In short: as §1

## C=C1C(=O)O[C@@H](CCCCCCCC)[C@@H]1C(=O)O [C-75] + O=C(c1cc(Cc2n[nH]c(=O)c3ccccc23)ccc1F)N1CCN(C(=O)C2CC2)CC1 [Olaparib] (partner 8 µM)
[1]; first compound 0.8 µM
  relative viability: 0.697
[1]; first compound 2.53 µM
  relative viability: 0.641
[1]; first compound 8 µM
  relative viability: 0.767
[2]; first compound 0.08 µM
  relative viability: 0.546
[2]; first compound 0.253 µM
  relative viability: 0.569
[2]; first compound 0.8 µM
  relative viability: 0.277
[2]; first compound 2.53 µM
  relative viability: 0.506
[2]; first compound 8 µM
  relative viability: 0.608
[3]; first compound 0.08 µM
  relative viability: 0.812
[3]; first compound 0.253 µM
  relative viability: 0.897
[3]; first compound 0.8 µM
  relative viability: 0.84
[3]; first compound 2.53 µM
  relative viability: 0.605
[3]; first compound 8 µM
  relative viability: 0.87
[4]; first compound 0.08 µM
  relative viability: 1.02
[4]; first compound 0.253 µM
  relative viability: 1.34
[4]; first compound 0.8 µM
  relative viability: 0.676
[4]; first compound 2.53 µM
  relative viability: 1.05
[4]; first compound 8 µM
  relative viability: 1.17
[5]; first compound 0.08 µM
  relative viability: 0.485
[5]; first compound 0.253 µM
  relative viability: 0.547
[5]; first compound 0.8 µM
  relative viability: 0.505
[5]; first compound 2.53 µM
  relative viability: 0.309
[5]; first compound 8 µM
  relative viability: 0.224
[6]; first compound 0.08 µM
  relative viability: 0.909
[6]; first compound 0.253 µM
  relative viability: 0.786
[6]; first compound 0.8 µM
  relative viability: 0.878
[6]; first compound 8 µM
  relative viability: 0.88
[7]; first compound 0.08 µM
  relative viability: 0.709
[7]; first compound 0.253 µM
  relative viability: 0.767
[7]; first compound 0.8 µM
  relative viability: 0.76
[7]; first compound 2.53 µM
  relative viability: 0.647
[7]; first compound 8 µM
  relative viability: 0.753
[8]; first compound 0.08 µM
  relative viability: 0.766
[8]; first compound 0.253 µM
  relative viability: 0.988
[8]; first compound 2.53 µM
  relative viability: 0.705
[8]; first compound 8 µM
  relative viability: 0.83
[9]; first compound 0.08 µM
  relative viability: 1.02
[9]; first compound 0.253 µM
  relative viability: 0.966
[9]; first compound 0.8 µM
  relative viability: 0.897
[9]; first compound 2.53 µM
  relative viability: 0.729
[9]; first compound 8 µM
  relative viability: 0.797
[10]; first compound 0.08 µM
  relative viability: 0.73
[10]; first compound 0.253 µM
  relative viability: 0.686
[10]; first compound 0.8 µM
  relative viability: 0.626
[10]; first compound 2.53 µM
  relative viability: 0.601
[10]; first compound 8 µM
  relative viability: 0.656
[11]; first compound 0.08 µM
  relative viability: 1.13
[11]; first compound 0.253 µM
  relative viability: 1.02
[11]; first compound 0.8 µM
  relative viability: 1.11
[11]; first compound 2.53 µM
  relative viability: 1.03
[11]; first compound 8 µM
  relative viability: 1.2
[12]; first compound 0.08 µM
  relative viability: 0.243
[12]; first compound 0.253 µM
  relative viability: 0.242
[12]; first compound 0.8 µM
  relative viability: 0.261
[12]; first compound 2.53 µM
  relative viability: 0.262
[12]; first compound 8 µM
  relative viability: 0.257
